Earlier results, collected in patent US20070161683A1, “Certain chemical entities, compositions, and methods” (priority 2005, published 2007).

system: A549 cells; settings: concentration that decreases the rate of cell growth by fifty percent

GI50 [nM] | SMILES
1000 | O=c1[nH]cc(F)c(=O)[nH]1 [5-fluorouracil]
63 | COc1cccc2c1C(=O)c1c(O)c3c(c(O)c1C2=O)C[C@@](O)(C(=O)CO)C[C@@H]3O[C@H]1C[C@H](N)[C@H](O)[C@H](C)O1 [doxorubicin]
500000 | NC(=O)NO [hydroxyurea]
4 | CC(=O)O[C@H]1C(=O)[C@@]2(C)[C@H]([C@H](OC(=O)c3ccccc3)[C@]3(O)C[C@H](OC(=O)[C@H](O)[C@@H](NC(=O)c4ccccc4)c4ccccc4)C(C)=C1C3(C)C)[C@]1(OC(C)=O)CO[C@@H]1C[C@@H]2O [paclitaxel]
